Data taken from PubChem BioAssay AID1033 (Sanford-Burnham Center for Chemical Genomics, 2008).
Where “and” joins values, the source holds several entries; their conditions need not be identical. Identical values can stand only once. Calls of active or inactive are those of the source. The rule behind the calls is not given here.

Target: Chaperone protein DnaK (Escherichia coli (strain K12)) (UniProt P0A6Y8)
Experiment: E. coli DnaK SBD ligand binding – biophysical, NMR, chaperone (AID 1033)
Conditions: Purified DnaK SBD

Sequence of Chaperone protein DnaK (Escherichia coli (strain K12)) (P0A6Y8 whole entry, looked up): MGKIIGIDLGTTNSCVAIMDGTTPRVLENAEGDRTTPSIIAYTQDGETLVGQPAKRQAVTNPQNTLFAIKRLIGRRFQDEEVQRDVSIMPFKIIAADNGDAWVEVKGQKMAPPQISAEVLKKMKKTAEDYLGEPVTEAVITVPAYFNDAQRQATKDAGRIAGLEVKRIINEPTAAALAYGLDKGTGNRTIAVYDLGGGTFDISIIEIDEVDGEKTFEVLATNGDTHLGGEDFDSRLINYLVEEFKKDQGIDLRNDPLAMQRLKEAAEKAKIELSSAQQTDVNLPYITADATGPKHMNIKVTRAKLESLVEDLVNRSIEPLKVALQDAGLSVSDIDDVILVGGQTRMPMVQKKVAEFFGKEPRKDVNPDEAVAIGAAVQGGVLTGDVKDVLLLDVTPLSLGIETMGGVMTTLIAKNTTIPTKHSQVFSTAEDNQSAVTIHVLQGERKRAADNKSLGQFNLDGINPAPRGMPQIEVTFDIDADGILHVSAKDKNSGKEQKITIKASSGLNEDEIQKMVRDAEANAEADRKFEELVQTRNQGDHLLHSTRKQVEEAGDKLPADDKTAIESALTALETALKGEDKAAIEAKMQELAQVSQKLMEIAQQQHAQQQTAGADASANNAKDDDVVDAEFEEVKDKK

SMILES | Kd
COc1cc2ccc(=O)oc2c2ccoc12 | > 4 mM (inactive)
Fc1cc2nccnc2cc1N1CCSCC1 | > 4 mM (inactive)
Cc1cc(C)nc(/N=C(/N)N2CCOCC2)n1 | > 4 mM (inactive)
C=CCSc1[nH]c(=O)cc(C)c1C(N)=O | > 4 mM (inactive)
CC(=O)N1CCN(c2ccc(O)cc2)CC1 | > 4 mM (inactive)
C[C@@H]1CCC2[C@](C)(CO)[C@@H](O)CC[C@]2(C)[C@@]12CC[C@@](CO)(CCO)O2 (stereo partly drawn) | > 4 mM (inactive)
NC(=O)CSc1nnc2ccc(-c3ccccn3)nn12 | > 4 mM (inactive)
Cc1cc(C(=O)Nc2ccc3c(c2)OCO3)cs1 | > 4 mM (inactive)
COC(=O)c1cncn1C | > 4 mM (inactive)
C=C1CCC(=O)C(C)CCC2C1CC2(C)C (stereo not drawn) | > 4 mM (inactive)
CC1=CC(=O)CC(C)(C)C1(O)/C=C/C(C)=C\C(=O)O (stereo not drawn) | > 4 mM (inactive)
OCC1CN(Cc2ccccc2)CCO1 (stereo not drawn) | > 4 mM (inactive)
COC(=O)c1c(OC)cc2c(c1C)Oc1c(Cl)c(OC(C)=O)c(Cl)c(C)c1C(=O)O2 | > 4 mM (inactive)
O=C1CNC(=O)N1Cc1ccc(Br)cc1 | > 4 mM (inactive)
S=C(c1ccc2c(c1)OCO2)N1CCCC1 | > 4 mM (inactive)
O=C(NCc1ccccc1Cl)c1cnn2cccnc12 | > 4 mM (inactive)
Cn1nc(C(=O)Nc2cccnc2)c2ccccc2c1=O | > 4 mM (inactive)
OC[C@H]1O[C@@H](O[C@H]2[C@H](O)[C@@H](O)[C@@H](O)O[C@@H]2CO)[C@H](O)[C@@H](O)[C@@H]1O | > 4 mM (inactive)
Cc1oc(-c2ccccc2)cc1C(N)=O | > 4 mM (inactive)
COc1ccc(/C=C2\SC(N)=NC2=O)cc1 | > 4 mM (inactive)
O=C(NCc1ccccc1F)c1cccs1 | 0.158 mM and < 0.2 mM
Cc1ccc(C)n1CCN1CCNCC1 | > 4 mM (inactive)
CC1CN(C(=O)c2ccncc2)CC(C)O1 (stereo not drawn) | > 4 mM (inactive)
CN1CCCn2c1nc1c2c(=O)[nH]c(=O)n1C | > 4 mM (inactive)

SMILES | Kd
COc1ccc2c(c1)=C(c1sc(N)nc1O)C(=O)N=2 | > 4 mM (inactive)
Cn1nc(C(=O)NCc2cccnc2)c2ccccc2c1=O | > 4 mM (inactive)
Cc1ccsc1/C=c1\sc2ncnn2c1=O | > 4 mM (inactive)
N=c1c2c3c(sc2ncn1N)CCCC3 | > 4 mM (inactive)
CC(C)(C)NC(=O)N1CCC(C(N)=O)CC1 | > 4 mM (inactive)
O=C1NC(=O)C(=Cc2ccccc2)C(=O)N1 | > 4 mM (inactive)
Nc1[nH]c(=S)[nH]c(=O)c1-c1ccccc1 | > 4 mM (inactive)
CC(=O)NC(O)C(=O)c1ccccc1 (stereo not drawn) | > 4 mM (inactive)
CC(CCC(=O)O)[C@H]1CCC2C3CC[C@@H]4C[C@H](O)CC[C@]4(C)C3C[C@H](O)[C@@]21C (stereo partly drawn) | > 4 mM (inactive)
S=C(Nc1ccc2nccnc2c1)N1CCOCC1 | > 4 mM (inactive)
Cc1nn(-c2ccccc2)c(Cl)c1C(N)=O | > 4 mM (inactive)
COc1c2ccoc2cc2oc(=O)ccc12 | > 4 mM (inactive)
O=c1n(-c2cccc(Cl)c2)c(=O)n2n1CCC2 | > 4 mM (inactive)
O=C1NC(=O)C(C2SC(=O)NC2=O)S1 (stereo not drawn) | > 4 mM (inactive)
CNC(=O)COc1cccc2c1CCNC2=O | > 4 mM (inactive)
CS(=O)(=O)c1nncn1-c1ccccc1 | > 4 mM (inactive)
O=C(CCc1n[nH]c(=O)[nH]c1=O)NCc1ccccc1 | > 4 mM (inactive)
N/C(=N/O)C1COc2ccccc2O1 (stereo not drawn) | > 4 mM (inactive)
COCc1nc(-c2cc(Br)ccc2OC)no1 | > 4 mM (inactive)
COc1ccccc1NC(=O)NC(N)=O | > 4 mM (inactive)
CC(=O)Nc1ccc(C(=O)n2nc(C)cc2C)cc1 | > 4 mM (inactive)
NC[C@H]1O[C@H](O[C@H]2[C@H](O)[C@@H](O[C@H]3O[C@H](CO)[C@@H](O)[C@H](N)[C@H]3O)[C@H](N)C[C@@H]2N)[C@H](N)[C@@H](O)[C@@H]1O | > 4 mM (inactive)
CN(Cc1nc2ccccc2n1C)C(=O)c1cccs1 | > 4 mM (inactive)
Nc1nc(-c2cccnc2)nn1C(=O)Cc1ccccc1 | > 4 mM (inactive)

SMILES | Kd
CC(=O)Nc1ccc(S(=O)(=O)NC2=NCCS2)cc1 | > 4 mM (inactive)
NCC1CN(Cc2ccccc2)CCO1 (stereo not drawn) | > 4 mM (inactive)
O=C(NCC1CCCCC1)c1ccco1 | > 4 mM (inactive)
CN(C)c1nc(N2CCOCC2)nc(N2CCOCC2)n1 | > 4 mM (inactive)
Cn1[nH]c2nc3[nH]n(C)c(=O)c3c(-c3ccccc3)c2c1=O | > 4 mM (inactive)
CC(=O)Nc1ccc(-c2nc(C)c(C(C)=O)n2O)cc1 | > 4 mM (inactive)
Cc1cc(NC(=O)c2cc(C)on2)no1 | > 4 mM (inactive)
Cc1occc1C(=O)Nc1sccc1C(N)=O | > 4 mM (inactive)
OCc1ccc(-n2ccnc2)cc1 | > 4 mM (inactive)
CCOC12NC(=O)CC(=O)N1C(c1ccccc1)=CS2 (stereo not drawn) | > 4 mM (inactive)
O=C(O)c1coc2c1C(=O)CCC2 | > 4 mM (inactive)
O=C(COc1ccccc1)N1CCc2ccccc2C1 | > 4 mM (inactive)
O=C(O)c1ccc(-c2cccs2)cc1 | > 4 mM (inactive)
O=C1CCCN1C(=O)c1ccc(F)cc1 | > 4 mM (inactive)
Cc1ccc2cccc(OC(=O)N3CCCC3)c2n1 | > 4 mM (inactive)
O=C(NC(=S)NC1CCS(=O)(=O)C1)c1ccccc1 (stereo not drawn) | > 4 mM (inactive)
CNC(=O)n1ccc(C(=O)N2CCCCC2)n1 | > 4 mM (inactive)
S=C(NCc1cccnc1)NC1CC1 | > 4 mM (inactive)
O=C1CCCN1C(=O)CN1CCOCC1 | > 4 mM (inactive)
CC(NC(=O)C1CCCCC1)C(=O)NC1=NCCS1 (stereo not drawn) | > 4 mM (inactive)
CCNC(=O)CC1Nc2ccccc2NC1=O (stereo not drawn) | > 4 mM (inactive)
O=C(O)Cn1nc(-c2ccccc2)c2ccccc2c1=O | > 4 mM (inactive)
c1ccc(-n2nnnc2Oc2cccc3cccnc23)cc1 | > 4 mM (inactive)
c1ccc(-c2nnc(CNCc3ccco3)o2)cc1 | > 4 mM (inactive)

SMILES | Kd
O=C(OCc1c(F)cccc1Cl)c1cnccn1 | > 4 mM (inactive)
O=C1O[C@H](C(O)CO)C(O)=C1O (stereo partly drawn) | > 4 mM (inactive)
CCOC(=O)c1c(C)nc2ncccn12 | > 4 mM (inactive)
CC(=O)O[C@@H]1CC2C(C)(C)CCC(=O)[C@]2(C)C2CC[C@@]3(C)[C@H](c4ccoc4)OC(=O)C4OC43[C@@]21C (stereo partly drawn) | > 4 mM (inactive)
CCOc1ccc(-c2c(=O)n(O)c3ccccc3[n+]2[O-])cc1 | > 4 mM (inactive)
c1coc(-c2nc(-c3ccncc3)no2)c1 | > 4 mM (inactive)
O=C1CCC(C(=O)NCc2cccnc2)N1 (stereo not drawn) | > 4 mM (inactive)
O=C(Nc1ccon1)c1ccccc1Cl | > 4 mM (inactive)
O=c1[nH]cc(NCc2ccco2)c(=O)[nH]1 | > 4 mM (inactive)
Cc1ccc(NC(=O)C(=O)Nc2ccccn2)cc1 | > 4 mM (inactive)
CC(C)Nc1nc2n(c(=O)n1)CCN2C(C)C | > 4 mM (inactive)
Cc1cc(NC(=O)c2ccc3c(c2)OCO3)no1 | > 4 mM (inactive)
O=C(O)c1cccc(-n2cccc2)c1 | > 4 mM (inactive)
CC(=O)NC(C)C12CC3CC(CC(C(=O)O)(C3)C1)C2 (stereo not drawn) | > 4 mM (inactive)
CCCCn1c(S(=O)(=O)O)nc2ccccc21 | > 4 mM (inactive)
NC(=O)c1cccc2c1OCCO2 | > 4 mM (inactive)
O=P(c1ccccc1)(c1ccccc1)C1CCOCC1 | > 4 mM (inactive)
Cc1ccc2c(C)c(C(=O)Nc3nnc(C)s3)oc2c1 | > 4 mM (inactive)
O=C(NN1C(=O)C2C3C=CC(C3)C2C1=O)C1CC=CCC1 (stereo not drawn) | > 4 mM (inactive)
O=C(CO)N/N=C/c1ccccc1F | > 4 mM (inactive)
CS(=O)(=O)CCCCN=C=S | > 4 mM (inactive)
C[C@H](CCC(=O)O)[C@H]1CCC2C3C(CC[C@@]21C)[C@@]1(C)CC[C@@H](O)C[C@H]1C[C@@H]3O (stereo partly drawn) | > 4 mM (inactive)
Cc1cc(C(=O)NC2=NCCS2)cs1 | > 4 mM (inactive)
Nc1cc(-c2ccco2)[nH]n1 | > 4 mM (inactive)

SMILES | Kd
CC(=O)NCCc1cc2ccc(C)c(C)c2[nH]c1=O | > 4 mM (inactive)
Cc1noc(C)c1C(=O)NCc1ccco1 | > 4 mM (inactive)
O=C(NCc1ccccn1)c1ccc(Br)s1 | > 4 mM (inactive)
O=C1NC(=O)/C(=C\c2ccncc2)S1 | > 4 mM (inactive)
CC(=O)Oc1c2c(c(CC=C(C)C)c3c1C(=O)C1=C[C@@H]4CC5C(C)(C)OC(C/C=C(\C)C(=O)O)(C4=O)[C@@]15O3)OC(C)(CCC=C(C)C)C=C2 (stereo partly drawn) | > 4 mM (inactive)
C=C[C@@](C)(O)CCC1C(=C)C[C@H](O)C2C(C)(C)CCCC12C (stereo partly drawn) | > 4 mM (inactive)
Cc1cc(C)n(/N=C\c2cccs2)c(=O)c1C(N)=O | > 4 mM (inactive)
CC(=O)Nc1cccc(-c2nnc3n2CC(C)S3)c1 (stereo not drawn) | > 4 mM (inactive)
CN(C)S(=O)(=O)NCc1ccc2c(c1)OCO2 | > 4 mM (inactive)
O=c1ccc2ccccc2o1 | > 4 mM (inactive)
COc1ccc2cc1Oc1ccc(cc1)C[C@H]1c3c(cc4c(c3Oc3cc5c(cc3OC)CCN(C)[C@@H]5C2)OCO4)CCN1C | > 4 mM (inactive)
O=C(c1ccccc1F)N1CCN(c2ccccc2)CC1 | > 4 mM (inactive)
O=C1c2cccnc2C(=O)N1Cc1ccc2c(c1)OCO2 | > 4 mM (inactive)
Nc1ncnc(Nc2ccccc2C(F)(F)F)n1 | > 4 mM (inactive)
COc1cccc(S(=O)(=O)Nc2cccnc2)c1 | > 4 mM (inactive)
Oc1ccccc1N1CCOCC1 | > 4 mM (inactive)
Cc1cc(N2CCCC2=O)c(N)cc1N | > 4 mM (inactive)
CC(=O)NC12CC3CC(CC(O)(C3)C1)C2 | > 4 mM (inactive)
C=C1C(=O)O[C@@H]2C3OC3(C)CC/C=C(\C)CC[C@@H]12 (stereo partly drawn) | > 4 mM (inactive)
O=C(O)C1Cc2ccccc2O1 (stereo not drawn) | > 4 mM (inactive)
COc1cccc(C(=O)Nc2c(C)n[nH]c2C)c1 | > 4 mM (inactive)
NC1=C(c2ccccc2)C(=O)c2ccccc21 | > 4 mM (inactive)
